Test results from patent US10308916B2, “Omega-transaminase mutants with activity improvements toward ketones and methods for producing optically pure amines” (Industry-Academic Cooperation Foundation, Yonsei University, priority 2015, dated 2019).
Where “and” joins values, the source holds several entries; their conditions need not be identical. Equal values may be shown once. Read-outs that look alike come from different tables or passages of the source.

What was measured:
Type in all cases: biochemical
OATA W58L [1] = test system: OATA W58L
OATA L57A/W58A [2] = test system: OATA L57A/W58A
OATA W58A [3] = test system: OATA W58A
OATA W58A [4] = test system: OATA W58A; remark: listed apart in the source
OATA L57A/W58A/V154A [5] = test system: OATA L57A/W58A/V154A
OATA L57A/W58A/V154A [6] = test system: OATA L57A/W58A/V154A; remark: listed apart in the source
OATA L57A [7] = test system: OATA L57A
OATA L57A/W58A [8] = test system: OATA L57A/W58A; remark: listed apart in the source
OATA L57Q/W58N/I261L [9] = test system: OATA L57Q/W58N/I261L
OATA W58L [10] = test system: OATA W58L; remark: listed apart in the source
OATA W58D/I261A [11] = test system: OATA W58D/I261A
OATA L57C/W58L/I261A [12] = test system: OATA L57C/W58L/I261A
OATA W58V = details: pH 7
OATA W58D/I261A [13] = test system: OATA W58D/I261A; remark: listed apart in the source
OATA W58I = details: pH 7
OATA L57C/W58L/I261A [14] = test system: OATA L57C/W58L/I261A; remark: listed apart in the source
OATA W58M = details: pH 7
[15] = test system: OATA W58A, OATA W58M, OATA W58V and OATA W58I mutants
OATA L57A/W58A [16] = test system: OATA L57A/W58A; remark: listed apart in the source
OATA L57A/W58A/V154A [17] = test system: OATA L57A/W58A/V154A; remark: listed apart in the source
OATA L57Q/W58N/I261L [18] = test system: OATA L57Q/W58N/I261L; remark: listed apart in the source
OATA W58A [19] = details: pH 7
OATA W58L [20] = details: pH 7
W58A mutant = test system: W58A mutant
OATA L57A [21] = test system: OATA L57A; remark: listed apart in the source
OATA W58A [22] = test system: OATA W58A; remark: listed apart in the source
OATA W58L [23] = test system: OATA W58L; remark: listed apart in the source
OATA W58L [24] = test system: OATA W58L; remark: listed apart in the source

CC(C)C(N)c1ccccc1 (racemic) [2-Methyl-1-phenylpropan-1-amine]
Relative reactivity, OATA W58L (OATA W58L [1]): 2% | Relative activity, OATA L57A/W58A (OATA L57A/W58A [2]): 12% | relative activity to (S)-α-MBA measured with OATA WT, OATA W58A (OATA W58A [3]): 6% | Relative reactivity, OATA W58A (OATA W58A [4]): 3% | Relative activity, OATA L57A/W58A/V154A (OATA L57A/W58A/V154A [5]): 167%

CCC(=O)C(=O)O [2-oxobutanoic acid]
Relative activity, OATA L57A/W58A/V154A (OATA L57A/W58A/V154A [6]): 852% | fold increase in reaction rate compared to OATA L57A (OATA L57A/W58A/V154A [6]): 25 | Relative activity, OATA L57A (OATA L57A [7]): 34% | Relative activity, OATA L57A/W58A (OATA L57A/W58A [8]): 290% | fold increase in reaction rate compared to OATA L57A (OATA L57A/W58A [8]): 8

CCCCC(=O)C(=O)O [2-oxohexanoic acid]
Relative activity, OATA L57A/W58A/V154A (OATA L57A/W58A/V154A [6]): 114% | Relative activity, OATA L57A (OATA L57A [7]): 15% | Relative activity, OATA L57A/W58A (OATA L57A/W58A [8]): 49%

CCCCCCC(=O)C(=O)O [2-oxooctanoic acid]
Relative activity, OATA L57A/W58A/V154A (OATA L57A/W58A/V154A [6]): 21% | Relative activity, OATA L57A (OATA L57A [7]): 2% | Relative activity, OATA L57A/W58A (OATA L57A/W58A [8]): 7%

CCCC(=O)C(=O)O [2-oxopentanoic acid]
Relative activity, OATA L57A/W58A/V154A (OATA L57A/W58A/V154A [6]): 206% | Relative activity, OATA L57A (OATA L57A [7]): 40% | Relative activity, OATA L57A/W58A (OATA L57A/W58A [8]): 103%

C[C@H](N)c1ccccc1 [(S)-α-methylbenzylamine]
Relative reactivity, OATA W58L (OATA W58L [1]): 100% | Relative activity, OATA L57Q/W58N/I261L (OATA L57Q/W58N/I261L [9]): 262% | Relative activity, OATA L57A/W58A (OATA L57A/W58A [2]): 621% | Relative reactivity, OATA W58A (OATA W58A [4]): 100% | Fold-increase in kcat/KM (OATA W58L [10]): 170 | fold decrease in KM (tighter binding) (OATA W58L [10]): 207 | Relative activity, OATA W58D/I261A (OATA W58D/I261A [11]): 17% | Relative activity, OATA L57A/W58A/V154A (OATA L57A/W58A/V154A [5]): 1,190%^ | Relative activity, OATA L57C/W58L/I261A (OATA L57C/W58L/I261A [12]): 900%

CCC[C@H](N)c1ccccc1 [(S)-α-propylbenzylamine]
Relative reactivity, OATA W58L (OATA W58L [1]): 2% | Relative activity, OATA L57A/W58A (OATA L57A/W58A [2]): 240% | relative activity to (S)-α-MBA measured with OATA WT, OATA W58A (OATA W58A [3]): 20% | Relative reactivity, OATA W58A (OATA W58A [4]): 10% | Relative activity, OATA L57A/W58A/V154A (OATA L57A/W58A/V154A [5]): 749%

NCc1ccccc1 [Benzylamine]
Relative reactivity, OATA W58L (OATA W58L [1]): 49% | Relative activity, OATA L57Q/W58N/I261L (OATA L57Q/W58N/I261L [9]): 123% | Relative reactivity, OATA W58A (OATA W58A [4]): 50% | Relative activity, OATA W58D/I261A (OATA W58D/I261A [11]): 17% | Relative activity, OATA L57C/W58L/I261A (OATA L57C/W58L/I261A [12]): 792%

CC(C)N [Isopropylamine]
Relative reactivity, OATA W58L (OATA W58L [1]): 72% | Relative activity, OATA L57Q/W58N/I261L (OATA L57Q/W58N/I261L [9]): 23% | Relative reactivity, OATA W58A (OATA W58A [4]): 28% | Fold-increase in kcat/KM (OATA W58L [10]): 8.6 | fold decrease in KM (tighter binding) (OATA W58L [10]): 8.9 | Relative activity, OATA L57C/W58L/I261A (OATA L57C/W58L/I261A [12]): 8%

CC(=O)c1ccccc1 [Ketone 1a, acetophenone]
Relative activity to acetophenone, OATA W58V (OATA W58V): 100% | Relative activity, OATA W58D/I261A (OATA W58D/I261A [13]): 648% | Relative activity to acetophenone, OATA W58I (OATA W58I): 100% | Relative activity, OATA L57C/W58L/I261A (OATA L57C/W58L/I261A [14]): 12,174% | Relative activity to acetophenone, OATA W58M (OATA W58M): 100% | fold increase in reactivity as compared to OATA WT [15]: more than 40 | Relative activity, OATA L57A/W58A (OATA L57A/W58A [16]): 716% | Relative activity, OATA L57A/W58A/V154A (OATA L57A/W58A/V154A [17]): 637% | Relative activity, OATA L57Q/W58N/I261L (OATA L57Q/W58N/I261L [18]): 2,500% | Fold-increase in kcat/KM (OATA W58L [10]): 340 | fold decrease in KM (tighter binding) (OATA W58L [10]): 6.1 | fold increase in turnover number (kcat) (OATA W58L [10]): 55.7 | kcat relative to kcat of the wild-type enzyme for pyruvate (OATA W58L [10]): up to 20% | Relative activity to acetophenone, OATA W58A (OATA W58A [19]): 100% | Relative activity to acetophenone, OATA W58L (OATA W58L [20]): 100% | fold increase in activity (W58A mutant): 41 | Relative activity, OATA L57A (OATA L57A [21]): 89% | Relative activity, OATA W58A (OATA W58A [22]): 1,206%^

CCCC(=O)c1ccccc1 [Ketone 1c, butyrophenone]
Relative activity to acetophenone, OATA W58V (OATA W58V): 12% | Relative activity to acetophenone, OATA W58I (OATA W58I): 11% | Relative activity to acetophenone, OATA W58M (OATA W58M): 15% | Relative activity, OATA L57A/W58A (OATA L57A/W58A [16]): 302% | fold increase in amination activity compared to OATA W58A (OATA L57A/W58A [16]): > 30 and 38 | Relative activity, OATA L57A/W58A/V154A (OATA L57A/W58A/V154A [17]): 747% | Relative activity to acetophenone, OATA W58A (OATA W58A [19]): 8% | Relative activity to acetophenone, OATA W58L (OATA W58L [20]): >0.1%^ | Relative activity, OATA L57A (OATA L57A [21]): 1% | Relative activity, OATA W58A (OATA W58A [22]): 8%

CC(=O)CCc1ccccc1 [Ketone 1f, benzylacetone]
Relative activity to acetophenone, OATA W58V (OATA W58V): 193% | Conversion (%) OATAW58L (OATA W58L [23]): 93% | Conversion, preparative scale (OATA W58L [23]): 92% | Relative activity to acetophenone, OATA W58I (OATA W58I): 125% | Relative activity, OATA L57C/W58L/I261A (OATA L57C/W58L/I261A [14]): 6,330% | Relative activity to acetophenone, OATA W58M (OATA W58M): 178% | Relative activity to acetophenone, OATA W58A (OATA W58A [19]): 219% | Relative activity to acetophenone, OATA W58L (OATA W58L [20]): 277% | Relative activity, OATA L57A (OATA L57A [21]): 439%

O=C1CCc2ccccc21 [Ketone 1g, 1-indanone]
Relative activity to acetophenone, OATA W58V (OATA W58V): 17% | Relative activity to acetophenone, OATA W58I (OATA W58I): 16% | Relative activity, OATA L57C/W58L/I261A (OATA L57C/W58L/I261A [14]): 609% | Relative activity to acetophenone, OATA W58M (OATA W58M): 20% | Relative activity to acetophenone, OATA W58A (OATA W58A [19]): 15% | Relative activity to acetophenone, OATA W58L (OATA W58L [20]): 2% | Relative activity, OATA L57A (OATA L57A [21]): 0.6%

O=C1CCc2ccccc21 [Ketone 1g]
Fold-increase (OATA W58L [24]): >760

O=C1CCCc2ccccc21 [Ketone 1h]
Fold-increase (OATA W58L [24]): >210

CC(=O)C(=O)O [pyruvate, pyruvic acid]
Relative activity, OATA L57A/W58A/V154A (OATA L57A/W58A/V154A [6]): 1,190% | Relative activity, OATA L57A (OATA L57A [7]): 77% | Fold-increase in kcat/KM (OATA W58L [10]): 0.41 | decrease in specificity constant (kcat/KM) (OATA W58L [10]): 60% | fold increase in turnover number (kcat) (OATA W58L [10]): 7.1 | weaker binding, fold decrease in KM as printed (OATA W58L [10]): 17.5 | Relative activity, OATA L57A/W58A (OATA L57A/W58A [8]): 707%
